Measurements reported in patent US9539252B2, “Piperazine-substituted benzothiophene derivatives as antipsychotic agents” (OTSUKA PHARMACEUTICAL CO., LTD., priority 2011, dated 2017).

Assay: physchem
Settings: oil or lipid, thermodynamic from solid
Experimental: Each of the Example compounds was examined for the solubility in oil (sesame oil, benzyl benzoate).
For the specific gravity of an oil, the following values were applied. • sesame oil (specific gravity: 0.914-0.921) • benzyl benzoate (specific gravity: 1.123) • (Method)
Example compound is measured in a microtube and an oil (sesame oil, or, benzyl benzoate) in an amount to make the concentration 10 mg/0.1 ml is added. After stirring, the solubility is evaluated by visual observation. When the compound is not dissolved, the mixture is heated, and the solubility is evaluated after cooling.

O=C(Cc1ccccc1)OCN1C(=O)CCc2ccc(OCCCCN3CCN(c4cccc5sccc45)CC3)cc21 [Example 25, phenylacetic acid 7-[4-(4-benzo[b]thiophen-4-ylpiperazin-1-yl)butoxy]-2-oxo-3,4-dihydro-2H-quinolin-1-ylmethyl ester]
solubility: > 100 mg/mL
